Results: patent publication US20140259191A1, “FISH ANESTHETIC AND METHOD” (AQUA-MOR TECHNOLOGIES LTD., priority 2011, published 2014)

Key:
carp fish = assay: Anesthesia of carp by linalool added to tank water; type: in vivo, Cyprinus carpio; settings: for time after addition of linalool until fish became relaxed / time until fish completely anesthetized: pH 7
Protocol: To a 100 liter tank containing 462 10-month old carp fish (Cyprinus carpio) of average weight 70 g and average body length 10 cm, having water at 25° C. at pH 7 was added a formulation containing 1% linalool. The formulation was added to the water to a linalool concentration of 75 ppm in the water. The fish became relaxed 3 minutes after addition of linalool and after 5 minutes were completely anesthetized. After 15 minutes the fish were removed to a recovery tank with fresh water. After 20 minutes in the recovery tank the fish resumed normal behavior.
(§1) To a 20 liter tank containing eight 2.5-year old carp fish of average weight 1 kg and average body length 50 cm in water at 20° C. and pH 7 was added a formulation containing 1% linalool. The formulation was added to the water to a linalool concentration of 100 ppm in the water. The fish became relaxed 2 minutes after addition of linalool and after 3 minutes were completely anesthetized. At 3 minutes the fish were removed to a recovery tank with fresh water. After 7 minutes in the recovery tank the fish resumed normal behavior.
To a 20 liter tank containing eight 1.8-year old carp fish of average weight 250 g and body length 21-24 cm in water at 20° C. and pH 7 was added a formulation containing 1% linalool. The formulation was added to the water to a linalool concentration of 50 ppm in the water. The fish became relaxed 3 minutes after addition of linalool and after 7 minutes were completely anesthetized. At 17 minutes the fish were removed to a recovery tank with fresh water. After 29 minutes in the recovery tank the fish resumed normal behavior.
as §1, with “2.2-year” for “2.5-year”, “380 g” for “1 kg”, “and” for “and average”, “30-32” for “50”, “At 17” for “After 7”

carp = assay: Carp exposed to 75 ppm linalool for varying amounts of time, recovery observed; type: in vivo, Cyprinus carpio; set-up: key to recovery state at 13 minutes after introduction of linalool / recovery state at 15 minutes after introduction of linalool / recovery state at 16 minutes after introduction of linalool / recovery state at 17 minutes after introduction of linalool / recovery state at 19 minutes after introduction of linalool / recovery state at 20 minutes after introduction of linalool / recovery state at 21 minutes after introduction of linalool / recovery state at 22 minutes after introduction of linalool / recovery state at 24 minutes after introduction of linalool / recovery state at 25 minutes after introduction of linalool / recovery state at 27 minutes after introduction of linalool / recovery state at 28 minutes after introduction of linalool / recovery state at 29 minutes after introduction of linalool / recovery state at 38 minutes after introduction of linalool / recovery state at 39 minutes after introduction of linalool / recovery state at 40 minutes after introduction of linalool / recovery state at 70 minutes after introduction of linalool / recovery state at 77 minutes after introduction of linalool / recovery state at 78 minutes after introduction of linalool: RT = removed to recovery tank; PR = partial recovery; TR = total recovery
Protocol: 16 healthy carp (Cyprinus carpio), average weight of 150 g, maintained in 6 liter tanks, were each exposed to 75 ppm of linalool (using the same formulation described in Example 1, 45 g of which were mixed into each treatment tank) for varying amounts of time. Pairs of fish were introduced to linalool simultaneously and then removed to recovery tanks at various times: 3, 8, 12, 15, 20, 30, 40 and 50 minutes after introduction, and each fish's recovery was observed over the course of two consecutive days. Complete anesthesia was achieved after 5 minutes of exposure.

cyprinus carpio = assay: Three-hour sedation of carp with 30 ppm linalool; type: in vivo
Protocol: Three cyprinus carpio of 140 g average weight, each in a tank of 20 L water at 25° C., were exposed to linalool, added to each tank in a formulation containing 20 wt. % linalool, 5 wt. % Alkamuls 14/R (a non-ionic surfactant added as an emulsifier), 70 wt. % propylene glycol and 5 wt. % ethanol to a linalool concentration of 30 ppm in the water. Specimens were observed every 30 minutes after addition of linalool. […] After removal to a tank of untreated water, each of the fish returned to their initial state within five minutes.

[1] = Example 13: 462 carp, average 70 g, 75 ppm linalool, 25° C.
[2] = Example 14: eight carp, average 1 kg, 100 ppm linalool, 20° C.
[3] = Example 15: eight carp, average 250 g, 50 ppm linalool, 20° C.
[4] = Example 16: eight carp, average 380 g, 100 ppm linalool, 20° C.
[5] = carp 150 g, fish still exposed (nos. 3-16)
[6] = carp, removed to recovery tank at 8 minutes (fish nos. 3, 4)
[7] = carp, removed to recovery tank at 12 minutes (fish nos. 5, 6)
[8] = carp, removed to recovery tank at 15 minutes (fish nos. 7, 8)
[9] = carp, removed to recovery tank at 20 minutes (fish nos. 9, 10)
[10] = carp, removed to recovery tank at 30 minutes (fish nos. 11, 12)
[11] = carp, removed to recovery tank at 40 minutes (fish nos. 13, 14)

C=CC(C)(O)CCC=C(C)C (centres unmarked) [linalool]
time after addition of linalool until fish became relaxed (carp fish; [1]): 3 min | time until fish completely anesthetized (carp fish; [1]): 5 min | time in recovery tank until normal behavior resumed (carp fish; Example 13: carp 70 g, 75 ppm linalool, removed after 15 minutes): 20 min | time in recovery tank until normal behavior resumed (carp fish; Example 14: carp 1 kg, 100 ppm linalool, removed at 3 minutes): 7 min | time after addition of linalool until fish became relaxed (carp fish; [2]): 2 min | time until fish completely anesthetized (carp fish; [2]): 3 min | time in recovery tank until normal behavior resumed (carp fish; Example 15: carp 250 g, 50 ppm linalool, removed at 17 minutes): 29 min | time after addition of linalool until fish became relaxed (carp fish; [3]): 3 min | time until fish completely anesthetized (carp fish; [3]): 7 min | time in recovery tank until normal behavior resumed (carp fish; Example 16: carp 380 g, 100 ppm linalool, removed at 3 minutes): 17 min | time after addition of linalool until fish became relaxed (carp fish; [4]): 2 min | time until fish completely anesthetized (carp fish; [4]): 3 min | time of exposure until complete anesthesia (carp; Example 8: carp 150 g): 5 min | observed state at 5 minutes after introduction of linalool (carp; carp 150 g): Loss of reflex reactivity (stage 5 anesthesia) | observed state at 10 minutes after introduction of linalool (carp; carp 150 g): opercular movements slow and irregular | observed state at 1 minute after introduction of linalool (carp; carp 150 g, all fish): Total loss of equilibrium | observed state at 3 minutes after introduction of linalool (carp; [5]): Total loss of reactivity to all but strong external stimuli | observed state at 4 minutes after introduction of linalool (carp; [5]): slow but regular opercular rate | recovery state at 13 minutes after introduction of linalool (carp; carp, removed to recovery tank at 3 minutes (fish nos. 1, 2)): TR | recovery state at 15 minutes after introduction of linalool (carp; [6]): PR | recovery state at 16 minutes after introduction of linalool (carp; [6]): TR and PR | recovery state at 17 minutes after introduction of linalool (carp; [6]): TR | recovery state at 19 minutes after introduction of linalool (carp; [7]): PR | recovery state at 20 minutes after introduction of linalool (carp; [7]): PR | recovery state at 21 minutes after introduction of linalool (carp; [7]): TR | recovery state at 22 minutes after introduction of linalool (carp; [7]): TR | recovery state at 24 minutes after introduction of linalool (carp; [8]): PR | recovery state at 25 minutes after introduction of linalool (carp; [8]): TR | recovery state at 28 minutes after introduction of linalool (carp; [8]): PR | recovery state at 29 minutes after introduction of linalool (carp; [8]): TR | recovery state at 27 minutes after introduction of linalool (carp; [9]): PR | recovery state at 28 minutes after introduction of linalool (carp; [9]): TR | recovery state at 38 minutes after introduction of linalool (carp; [10]): PR | recovery state at 39 minutes after introduction of linalool (carp; [10]): TR and PR | recovery state at 40 minutes after introduction of linalool (carp; [10]): TR | recovery state at 70 minutes after introduction of linalool (carp; [11]): TR | recovery state at 77 minutes after introduction of linalool (carp; [11]): PR | recovery state at 78 minutes after introduction of linalool (carp; [11]): TR | recovery of fish nos. 15 and 16 (carp; carp, removed to recovery tank at 50 minutes): Fish nos. 15 and 16 never recovered. | time in untreated water until return to initial state (cyprinus carpio; Example 28: carp 140 g, after three-hour exposure): five | handling state of the fish (cyprinus carpio; Example 28: three carp 140 g, 25° C., at 30 minutes after exposure and for the duration of the three-hour exposure): easy to handle
